Assay results from patent publication US6525001B1, “Substituted pyrimidine and pyridine herbicides” (Mid-American Commercialization Corporation, priority 1997, dated 2003).

What was measured:
Test in all cases: Test B pre-/postemergence
Assay type in all cases: in vivo
Set-up in all cases: key: 0 is no effect; 10 is complete control
[1] = system: bedstraw (Galium aparine)
Outline: (§1)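 Response scores run from 0, meaning no effect, to 10, meaning complete control, assigned by eye relative to controls twelve to sixteen days after spraying. Treatment was both preemergence on planted seed and postemergence on plants at the 1- to 4-leaf stage.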

[2] = system: blackgrass (Alopecurus myosuroides)
Outline: as §1

[3] = system: broadleaf signalgrass (Brachiaria decumbens)
Outline: as §1

[4] = system: cocklebur (Xanthium strumarium)
Outline: as §1

corn (Zea mays) = system: corn (Zea mays)
Outline: as §1

[5] = system: crabgrass (Digitaria sanguinalis)
Outline: as §1

[6] = system: giant foxtail (Setaria faberii)
Outline: as §1

[7] = system: momingglory (Ipomoea hederacea)
Outline: as §1

[8] = system: pigweed (Amaranthus retroflexus)
Outline: as §1

rape (Brassica napus) = system: rape (Brassica napus)
Outline: as §1

soybean (Glycine max) = system: soybean (Glycine max)
Outline: as §1

[9] = system: sugar beet (Beta vulgaris)
Outline: as §1

[10] = system: velvetleaf (Abutilon theophrasti)
Outline: as §1

[11] = system: wheat (Triticum aestivum)
Outline: as §1

## Cc1cnc(-n2ccc(C(F)(F)F)n2)nc1Cn1ccc(C(F)(F)F)n1 [Compound 52]
[1]; Rate 62 g/ha, Postemergence
  Plant response rating, Bedstraw: 9
[1]; Rate 62 g/ha, Preemergence
  Bedstraw plant response rating: 7
[1]; Rate 125 g/ha, Postemergence
  Bedstraw plant response rating: 10
[1]; Rate 125 g/ha, Preemergence
  Plant response rating, Bedstraw: 8
[1]; Rate 250 g/ha, Postemergence
  Plant response rating, Bedstraw: 10
[1]; Rate 250 g/ha, Preemergence
  Plant response rating, Bedstraw: 9
[1]; Rate 500 g/ha, Postemergence
  Plant response rating, Bedstraw: 10
[1]; Rate 500 g/ha, Preemergence
  Plant response rating, Bedstraw: 10
[2]; Rate 62 g/ha, Postemergence
  Plant response rating, Blackgrass: 5
[2]; Rate 62 g/ha, Preemergence
  Blackgrass plant response rating: 5
[2]; Rate 125 g/ha, Postemergence
  Blackgrass plant response rating: 9
[2]; Rate 125 g/ha, Preemergence
  Plant response rating, Blackgrass: 8
[2]; Rate 250 g/ha, Postemergence
  Plant response rating, Blackgrass: 9
[2]; Rate 250 g/ha, Preemergence
  Plant response rating, Blackgrass: 10
[2]; Rate 500 g/ha, Postemergence
  Plant response rating, Blackgrass: 9
[2]; Rate 500 g/ha, Preemergence
  Plant response rating, Blackgrass: 10
[3]; Rate 62 g/ha, Postemergence
  Plant response rating, B. signalgrass: 4
[3]; Rate 62 g/ha, Preemergence
  B. signalgrass plant response rating: 8
[3]; Rate 125 g/ha, Postemergence
  B. signalgrass plant response rating: 9
[3]; Rate 125 g/ha, Preemergence
  Plant response rating, B. signalgrass: 9
[3]; Rate 250 g/ha, Postemergence
  Plant response rating, B. signalgrass: 9
[3]; Rate 250 g/ha, Preemergence
  Plant response rating, B. signalgrass: 10
[3]; Rate 500 g/ha, Postemergence
  Plant response rating, B. signalgrass: 9
[3]; Rate 500 g/ha, Preemergence
  Plant response rating, B. signalgrass: 10
[4]; Rate 62 g/ha, Postemergence
  Plant response rating, Cocklebur: 8
[4]; Rate 62 g/ha, Preemergence
  Cocklebur plant response rating: 1
[4]; Rate 125 g/ha, Postemergence
  Cocklebur plant response rating: 8
[4]; Rate 250 g/ha, Postemergence
  Plant response rating, Cocklebur: 9
[4]; Rate 250 g/ha, Preemergence
  Plant response rating, Cocklebur: 7
[4]; Rate 500 g/ha, Postemergence
  Plant response rating, Cocklebur: 9
[4]; Rate 500 g/ha, Preemergence
  Plant response rating, Cocklebur: 10
Corn (Zea mays); Rate 62 g/ha, Postemergence
  Plant response rating, Corn: 4
Corn (Zea mays); Rate 62 g/ha, Preemergence
  Corn plant response rating: 3
Corn (Zea mays); Rate 125 g/ha, Postemergence
  Corn plant response rating: 5
Corn (Zea mays); Rate 125 g/ha, Preemergence
  Plant response rating, Corn: 3
Corn (Zea mays); Rate 250 g/ha, Postemergence
  Plant response rating, Corn: 6
Corn (Zea mays); Rate 250 g/ha, Preemergence
  Plant response rating, Corn: 7
Corn (Zea mays); Rate 500 g/ha, Postemergence
  Plant response rating, Corn: 7
Corn (Zea mays); Rate 500 g/ha, Preemergence
  Plant response rating, Corn: 8
[5]; Rate 62 g/ha, Postemergence
  Plant response rating, Crabgrass: 6
[5]; Rate 62 g/ha, Preemergence
  Crabgrass plant response rating: 9
[5]; Rate 125 g/ha, Postemergence
  Crabgrass plant response rating: 8
[5]; Rate 125 g/ha, Preemergence
  Plant response rating, Crabgrass: 10
[5]; Rate 250 g/ha, Postemergence
  Plant response rating, Crabgrass: 9
[5]; Rate 250 g/ha, Preemergence
  Plant response rating, Crabgrass: 10
[5]; Rate 500 g/ha, Postemergence
  Plant response rating, Crabgrass: 9
[5]; Rate 500 g/ha, Preemergence
  Plant response rating, Crabgrass: 10
[6]; Rate 62 g/ha, Postemergence
  Plant response rating, Giant foxtail: 7
[6]; Rate 62 g/ha, Preemergence
  Giant foxtail plant response rating: 9
[6]; Rate 125 g/ha, Postemergence
  Giant foxtail plant response rating: 8
[6]; Rate 125 g/ha, Preemergence
  Plant response rating, Giant foxtail: 9
[6]; Rate 250 g/ha, Postemergence
  Plant response rating, Giant foxtail: 9
[6]; Rate 250 g/ha, Preemergence
  Plant response rating, Giant foxtail: 10
[6]; Rate 500 g/ha, Postemergence
  Plant response rating, Giant foxtail: 9
[6]; Rate 500 g/ha, Preemergence
  Plant response rating, Giant foxtail: 10
[7]; Rate 62 g/ha, Postemergence
  Plant response rating, Morningglory: 10
[7]; Rate 62 g/ha, Preemergence
  Morningglory plant response rating: 9
[7]; Rate 125 g/ha, Postemergence
  Morningglory plant response rating: 10
[7]; Rate 125 g/ha, Preemergence
  Plant response rating, Morningglory: 10
[7]; Rate 250 g/ha, Postemergence
  Plant response rating, Morningglory: 10
[7]; Rate 250 g/ha, Preemergence
  Plant response rating, Morningglory: 10
[7]; Rate 500 g/ha, Postemergence
  Plant response rating, Morningglory: 10
[7]; Rate 500 g/ha, Preemergence
  Plant response rating, Morningglory: 10
[8]; Rate 62 g/ha, Postemergence
  Plant response rating, Redroot pigweed: 9
[8]; Rate 62 g/ha, Preemergence
  Redroot pigweed plant response rating: 10
[8]; Rate 125 g/ha, Postemergence
  Redroot pigweed plant response rating: 10
[8]; Rate 125 g/ha, Preemergence
  Plant response rating, Redroot pigweed: 10
[8]; Rate 250 g/ha, Postemergence
  Plant response rating, Redroot pigweed: 10
[8]; Rate 250 g/ha, Preemergence
  Plant response rating, Redroot pigweed: 10
[8]; Rate 500 g/ha, Postemergence
  Plant response rating, Redroot pigweed: 10
[8]; Rate 500 g/ha, Preemergence
  Plant response rating, Redroot pigweed: 10
Rape (Brassica napus); Rate 62 g/ha, Postemergence
  Plant response rating, Rape: 9
Rape (Brassica napus); Rate 62 g/ha, Preemergence
  Rape plant response rating: 9
Rape (Brassica napus); Rate 125 g/ha, Postemergence
  Rape plant response rating: 9
Rape (Brassica napus); Rate 125 g/ha, Preemergence
  Plant response rating, Rape: 10
Rape (Brassica napus); Rate 250 g/ha, Postemergence
  Plant response rating, Rape: 9
Rape (Brassica napus); Rate 250 g/ha, Preemergence
  Plant response rating, Rape: 10
Rape (Brassica napus); Rate 500 g/ha, Postemergence
  Plant response rating, Rape: 10
Rape (Brassica napus); Rate 500 g/ha, Preemergence
  Plant response rating, Rape: 10
Soybean (Glycine max); Rate 62 g/ha, Postemergence
  Plant response rating, Soybean: 9
Soybean (Glycine max); Rate 62 g/ha, Preemergence
  Soybean plant response rating: 4
Soybean (Glycine max); Rate 125 g/ha, Postemergence
  Soybean plant response rating: 9
Soybean (Glycine max); Rate 125 g/ha, Preemergence
  Plant response rating, Soybean: 7
Soybean (Glycine max); Rate 250 g/ha, Postemergence
  Plant response rating, Soybean: 9
Soybean (Glycine max); Rate 250 g/ha, Preemergence
  Plant response rating, Soybean: 8
Soybean (Glycine max); Rate 500 g/ha, Postemergence
  Plant response rating, Soybean: 9
Soybean (Glycine max); Rate 500 g/ha, Preemergence
  Plant response rating, Soybean: 9
[9]; Rate 62 g/ha, Postemergence
  Plant response rating, Sugarbeets: 9
[9]; Rate 62 g/ha, Preemergence
  Sugarbeets plant response rating: 10
[9]; Rate 125 g/ha, Postemergence
  Sugarbeets plant response rating: 10
[9]; Rate 125 g/ha, Preemergence
  Plant response rating, Sugarbeets: 10
[9]; Rate 250 g/ha, Postemergence
  Plant response rating, Sugarbeets: 10
[9]; Rate 250 g/ha, Preemergence
  Plant response rating, Sugarbeets: 10
[9]; Rate 500 g/ha, Postemergence
  Plant response rating, Sugarbeets: 10
[9]; Rate 500 g/ha, Preemergence
  Plant response rating, Sugarbeets: 10
[10]; Rate 62 g/ha, Postemergence
  Plant response rating, Velvetleaf: 8
[10]; Rate 62 g/ha, Preemergence
  Velvetleaf plant response rating: 10
[10]; Rate 125 g/ha, Postemergence
  Velvetleaf plant response rating: 8
[10]; Rate 125 g/ha, Preemergence
  Plant response rating, Velvetleaf: 10
[10]; Rate 250 g/ha, Postemergence
  Plant response rating, Velvetleaf: 8
[10]; Rate 250 g/ha, Preemergence
  Plant response rating, Velvetleaf: 10
[10]; Rate 500 g/ha, Postemergence
  Plant response rating, Velvetleaf: 9
[10]; Rate 500 g/ha, Preemergence
  Plant response rating, Velvetleaf: 10
[11]; Rate 62 g/ha, Postemergence
  Wheat plant response rating: 4
[11]; Rate 62 g/ha, Preemergence
  Wheat plant response rating: 2
[11]; Rate 125 g/ha, Postemergence
  Wheat plant response rating: 7
[11]; Rate 125 g/ha, Preemergence
  Plant response rating, Wheat: 2
[11]; Rate 250 g/ha, Postemergence
  Plant response rating, Wheat: 7
[11]; Rate 250 g/ha, Preemergence
  Plant response rating, Wheat: 3
[11]; Rate 500 g/ha, Postemergence
  Plant response rating, Wheat: 8
[11]; Rate 500 g/ha, Preemergence
  Plant response rating, Wheat: 6
